Laboratory results as given in patent US20050032863A1, “Method of treating or preventing central nervous system disorders with compounds having selectivity for the alpha 3 subunit of the benzodiazepine receptor” (priority 2003, published 2005).

Key:
[1] = system: 5-HT release in the brain; conditions: literature reports; cited from earlier work
[2] = target: T1, recombinant rat α2β2γ2 GABAA receptors (Rattus norvegicus, UniProt P23576); experiment: Whole-cell patch-clamp, modulation of GABA (EC20)-induced currents in transfected HEK 293 cells, α2β2γ2; format: cell-based
T1 construct: expressed in transfected cells; host or cells: HEK 293
T1 sequence (P23576 29-451): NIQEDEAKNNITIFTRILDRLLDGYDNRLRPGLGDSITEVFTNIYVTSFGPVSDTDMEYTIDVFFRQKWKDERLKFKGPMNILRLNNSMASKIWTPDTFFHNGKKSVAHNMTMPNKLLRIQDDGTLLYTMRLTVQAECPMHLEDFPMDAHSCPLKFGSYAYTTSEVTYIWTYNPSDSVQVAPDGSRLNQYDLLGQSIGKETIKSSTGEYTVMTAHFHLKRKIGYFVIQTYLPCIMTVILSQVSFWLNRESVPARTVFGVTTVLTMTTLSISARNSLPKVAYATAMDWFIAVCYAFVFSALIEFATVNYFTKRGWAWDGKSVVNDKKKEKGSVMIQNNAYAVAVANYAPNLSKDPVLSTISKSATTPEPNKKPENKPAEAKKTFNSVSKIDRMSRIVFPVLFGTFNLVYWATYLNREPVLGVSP
Experimental: (§1) For electrophysiological recording HEK-293 cells were passaged and replated on 12-mm glass coverslips located in 9.6-cm plastic dishes filled with 10 ml of Minimum Essential Medium (MEM, Gibco) supplemented with 158 mg/l sodium bicarbonate, 2 mM glutamine (Gibco), 100 U/ml penicillin-streptomycin (Gibco), and 10% foetal calf serum (Gibco). Cultures were maintained at 37° C. in a humidified […]/5% CO2 atmosphere for 2-3 days.
(§2) Transfection with recombinant rat GABAA receptors was carried out as described in detail (Korpi and Lüddens, 1993, Lüddens and Korpi, 1995b). Briefly, HEK 293 cells were transfected in triple combinations using the phosphate precipitation method with rat GABAA receptor cDNAs in eukaryotic expression vectors (Pritchett, 1990) for the α, β and γ subunits. For optimal receptor expression, final concentrations (μg vector DNA per 9.6 cm tissue culture plate) were: α1, 2; α2 4.8; α3, 1.2; α4, 10; α5, 0.8; β2, 0.4; and γ2S, 0.3. The γ2S variant is abbreviated γ2 in the remainder of the text. To identify transfected cells all subunit combinations were co-transfected with 1 μg per plate of pNI-EGFP.
(§3) Two days after transfection single coverslips containing HEK 293 cells were placed in a recording chamber mounted on the movable stage of a fluorescence microscope (Olympus IX70) and perfused with a defined saline solution containing (in mM): 130 NaCl, 5.4 KCl, 2 CaCl2, 2 MgSO4, 10 glucose, 5 sucrose, and 10 HEPES (free acid), pH adjusted to 7.35 with about 35 mM NaOH. Transfected cells were identified by their green fluorescence due to the expression of the pNI-EGFP vector and ligand-mediated membrane currents of these cells were studied in the whole-cell configuration of the patch-clamp technique (Hamil et al., 1981). Patch-clamp pipettes were pulled from hard borosilicate capillary glass (0.5 mm ID, 1.5 mm OD, Vitrex, Science Products GmbH, Hofheim, Germany) using a horizontal puller (Sutter Instruments, CA, Model P-97) in a multi-stage process.
(§4) Seal resistances >1 GΩ were routinely obtained by applying gentle suction to the pipettes. Membrane rupture was monitored electrically as an increase in capacity. Pipette capacitance, membrane capacitance, and series resistance were electronically compensated to achieve minimal capacitative transients. A series resistance compensation of >60% was regularly used.
(§5) In all cells recorded the presence of the γ2 subunit in the heteropentamere was monitored by the application of 1 μM zolpidem plus the EC20 of GABA before testing the experimental drugs.
(§6) Responses of the cells were recorded by a patch-clamp amplifier (EPC-8, HEKA-Electronic, Lambrecht, Germany) in conjunction with a standard personal computer and the pClamp 8.1 software package (Axon Instruments, Foster City, Calif.). The standard holding-potential for the cells was −40 mV. Whole cell currents were low-pass filtered by an eight-pole Bessel filter at 5 or 3 kHz before being digitised by a Digidata 1322A interface (Axon Instruments, Foster City, Calif.) and recorded by the computer at a sampling rate of at least […].
(§7) Efficacy, potency, and GABAA receptor a subunit specificity of the new compound ELB139 was tested with the whole cell configuration of the patch-clamp technique by applying increasing drug concentration together with GABA of the approximate EC20 on green fluorescing cells. BZ binding site specificity of the new compound was tested on the same cells in an identical experimental setting with additionally applying 10 μM Ro15-1788.

[3] = target: T2, recombinant rat α5β2γ2 GABAA receptors (Rattus norvegicus, UniProt P19969); experiment: Whole-cell patch-clamp, modulation of GABA (EC20)-induced currents in transfected HEK 293 cells, α5β2γ2; format: cell-based
T2 construct: expressed in transfected cells; host or cells: HEK 293
T2 sequence (P19969 32-464 limits assumed): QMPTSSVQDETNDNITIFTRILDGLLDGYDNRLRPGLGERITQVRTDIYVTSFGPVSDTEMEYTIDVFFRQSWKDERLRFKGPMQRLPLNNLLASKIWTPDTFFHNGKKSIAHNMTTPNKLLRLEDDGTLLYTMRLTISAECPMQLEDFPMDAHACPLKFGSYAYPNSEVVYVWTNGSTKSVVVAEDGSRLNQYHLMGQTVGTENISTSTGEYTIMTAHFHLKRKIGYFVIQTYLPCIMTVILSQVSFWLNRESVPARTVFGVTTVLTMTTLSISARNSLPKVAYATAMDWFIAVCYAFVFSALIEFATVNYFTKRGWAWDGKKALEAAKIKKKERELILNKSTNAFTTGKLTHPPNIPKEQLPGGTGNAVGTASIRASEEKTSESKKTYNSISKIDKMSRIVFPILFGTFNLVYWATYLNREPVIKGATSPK
Experimental: as §1, §2, §3, §4, §5, §6, §7

[4] = target: T3, recombinant rat α1β2γ2 GABAA receptors (Rattus norvegicus, UniProt P62813); experiment: Whole-cell patch-clamp, modulation of GABA (EC20)-induced currents in transfected HEK 293 cells, α1β2γ2; format: cell-based
T3 construct: expressed in transfected cells; host or cells: HEK 293
T3 sequence (P62813 28-455): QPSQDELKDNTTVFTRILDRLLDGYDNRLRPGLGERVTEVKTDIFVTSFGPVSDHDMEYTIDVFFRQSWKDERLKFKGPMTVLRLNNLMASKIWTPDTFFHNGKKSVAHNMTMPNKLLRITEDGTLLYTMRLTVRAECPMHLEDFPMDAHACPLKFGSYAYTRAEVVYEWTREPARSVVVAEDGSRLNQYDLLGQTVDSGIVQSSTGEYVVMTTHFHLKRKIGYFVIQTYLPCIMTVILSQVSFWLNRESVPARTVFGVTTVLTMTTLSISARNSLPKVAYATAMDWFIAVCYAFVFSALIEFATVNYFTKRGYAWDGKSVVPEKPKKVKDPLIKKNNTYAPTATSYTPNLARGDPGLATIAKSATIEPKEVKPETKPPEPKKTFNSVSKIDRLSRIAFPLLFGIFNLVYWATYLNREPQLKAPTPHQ
Experimental: as §1, §2, §3, §4, §5, §6, §7

[5] = target: T4, recombinant rat α3β2γ2 GABAA receptors (Rattus norvegicus, UniProt P20236); experiment: Whole-cell patch-clamp, modulation of GABA (EC20)-induced currents in transfected HEK 293 cells, α3β2γ2; format: cell-based
T4 construct: expressed in transfected cells; host or cells: HEK 293
T4 sequence (P20236 29-493): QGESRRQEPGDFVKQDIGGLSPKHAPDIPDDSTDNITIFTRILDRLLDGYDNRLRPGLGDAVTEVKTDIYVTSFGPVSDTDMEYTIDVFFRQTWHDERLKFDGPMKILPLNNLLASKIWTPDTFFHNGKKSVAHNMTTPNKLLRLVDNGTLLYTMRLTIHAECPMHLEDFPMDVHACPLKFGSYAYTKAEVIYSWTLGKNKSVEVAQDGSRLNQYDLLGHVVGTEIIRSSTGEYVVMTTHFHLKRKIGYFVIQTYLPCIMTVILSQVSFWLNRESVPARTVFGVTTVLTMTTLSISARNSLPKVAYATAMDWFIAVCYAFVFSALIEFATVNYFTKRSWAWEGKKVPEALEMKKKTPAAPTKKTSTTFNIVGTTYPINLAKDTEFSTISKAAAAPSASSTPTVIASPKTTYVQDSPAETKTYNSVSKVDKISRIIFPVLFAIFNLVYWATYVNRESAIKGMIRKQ
Experimental: as §1, §2, §3, §4, §5, §6, §7

[6] = target: T5, recombinant rat α4β2γ2 GABAA receptors (Rattus norvegicus, UniProt P28471); experiment: Whole-cell patch-clamp, modulation of GABA (EC20)-induced currents in transfected HEK 293 cells, α4β2γ2; format: cell-based; conditions: α4-containing receptors; diazepam up to 1 μM, ELB139 at all concentrations tested
T5 construct: expressed in transfected cells; host or cells: HEK 293
Experimental: as §1, §2
as §3, with “Patch-clamp pipettes were pulled from hard borosilicate capillary glass (0.5 mm ID, 1.5 mm OD, Vitrex, Science Products GmbH, Hofheim, Germany) using a horizontal puller (Sutter Instruments, CA, Model P-97) in a multi-stage process.” left out
Seal resistances >1 GΩ were routinely obtained by applying gentle suction to the pipettes. Membrane rupture was monitored electrically as an increase in capacity. […]
In all cells recorded the presence of the γ2 subunit in the heteropentamere was monitored by the application of 1 μM zolpidem plus the EC20 of GABA before testing the experimental drugs. […]

[7] = system: female Wistar rats, MK-801-induced stereotypies, hyperactivity and ataxia; experiment: MK-801-induced behaviour, rat model of psychosis (Example 1); format: in vivo; conditions: 0.5 mg/kg i.p. 1 h prior to test; MK-801 0.2 mg/kg i.p.; p<0.001
Experimental: (§8) The behaviour induced by the NMDA antagonist MK-801 is generally accepted as a rat model of psychosis. MK-801 induces stereotypies, hyperactivity and ataxia in rats after intraperitoneal administration.
Locomotor activity of the rats is recorded by the MotiTest Apparatus (TSE, Bad Homburg, Germany). The test area consisted of a squared arena ([…] with protective plexiglass walls (20 cm of height) where rats could freely move. Horizontal movements were recorded by 32 infrared photocells arranged along the bottom of each wall of the arena. Vertical movements (rearings) were recorded by a horizontal row of 32 infrared photocells 12 cm above the floor. The following parameters are measured by the computer program “ActiMot” (TSE, Bad Homburg, Germany): • active time [s] and total distance travelled [m]
(§9) Stereotypies, divided into stereotyped sniffing and other stereotypies, and ataxia are scored by the experimenter every five minutes for one hour (12 intervals) according to the method described by Andiné et al. (1999). The scores of the 12 intervals are added for each parameter.
The day of experiment the female rats are placed in the laboratory and receive the test compound, the reference substance or vehicle at the appropriate time prior to test. MK-801 0.2 mg/kg is intraperitoneally administered 10 minutes prior to test.
(§10) At the beginning of the test the rats are placed in the centre of the squared arena of the MotiTest apparatus. Behaviour of the rats is recorded for one hour. After each run animals are removed and the boxes thoroughly cleaned and dried.

[8] = system: female Wistar rats, MK-801-induced stereotypies, hyperactivity and ataxia; experiment: MK-801-induced psychosis-related behaviour and reversibility by flumazenil (Example 7); format: in vivo, rat
Experimental: Apart from the haloperidol rats which received haloperidol 30 minutes and MK-801 10 minutes prior to the test, the other test groups received haloperidol, ELB139 or vehicle 60 minutes prior to test, saline or flumazenil 20 minutes prior to test and MK-801 10 minutes prior to test.
as §8
Locomotor activity of the rats is recorded by the MotiTest Apparatus (TSE, Bad Homburg, Germany). The test area consisted of a squared arena (45×45 cm) with protective plexiglass walls (20 cm of height) where rats could freely move. Horizontal movements were recorded by 32 infrared photocells arranged along the bottom of each wall of the arena. Vertical movements (rearings) were recorded by a horizontal row of 32 infrared photocells 12 cm above the floor. The following parameters were measured by the computer program “ActiMot” (TSE, Bad Homburg, Germany): • 1. active time [s] • 2. total distance travelled [m]
as §9
The day of experiment the female rats are placed in the laboratory and receive the test compound, the reference substance or vehicle at the appropriate time prior to test. […]
as §10

[9] = target: alpha 1 containing receptors (UniProt P14867+P18508); conditions: cited from earlier work
Chain of alpha 1 containing receptors (P14867 28-456): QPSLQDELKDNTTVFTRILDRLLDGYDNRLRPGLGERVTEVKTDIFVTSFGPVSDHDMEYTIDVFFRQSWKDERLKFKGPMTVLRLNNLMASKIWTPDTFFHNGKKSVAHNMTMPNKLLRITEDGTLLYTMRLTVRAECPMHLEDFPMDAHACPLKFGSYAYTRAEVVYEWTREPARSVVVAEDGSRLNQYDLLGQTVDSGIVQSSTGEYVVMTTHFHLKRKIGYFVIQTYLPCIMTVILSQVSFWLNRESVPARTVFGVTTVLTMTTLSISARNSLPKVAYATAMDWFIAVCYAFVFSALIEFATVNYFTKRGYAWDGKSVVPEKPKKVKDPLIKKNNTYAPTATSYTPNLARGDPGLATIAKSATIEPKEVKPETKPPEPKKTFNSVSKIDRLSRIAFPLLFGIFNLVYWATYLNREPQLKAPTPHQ
Chain of alpha 1 containing receptors (P63138 25-474 partner limits assumed): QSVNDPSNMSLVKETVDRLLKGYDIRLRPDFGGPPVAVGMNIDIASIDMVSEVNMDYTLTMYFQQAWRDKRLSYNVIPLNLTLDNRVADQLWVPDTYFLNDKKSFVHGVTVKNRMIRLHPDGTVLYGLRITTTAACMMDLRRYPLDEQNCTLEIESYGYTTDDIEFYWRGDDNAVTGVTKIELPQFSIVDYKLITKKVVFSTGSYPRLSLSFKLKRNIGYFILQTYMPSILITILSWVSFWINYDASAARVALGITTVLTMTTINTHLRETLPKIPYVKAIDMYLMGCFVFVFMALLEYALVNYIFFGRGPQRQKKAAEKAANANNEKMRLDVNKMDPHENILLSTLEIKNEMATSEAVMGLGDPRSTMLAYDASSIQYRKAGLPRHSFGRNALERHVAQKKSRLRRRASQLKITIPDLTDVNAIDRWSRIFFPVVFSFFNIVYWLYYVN
Chain of alpha 1 containing receptors (P18508 39-466): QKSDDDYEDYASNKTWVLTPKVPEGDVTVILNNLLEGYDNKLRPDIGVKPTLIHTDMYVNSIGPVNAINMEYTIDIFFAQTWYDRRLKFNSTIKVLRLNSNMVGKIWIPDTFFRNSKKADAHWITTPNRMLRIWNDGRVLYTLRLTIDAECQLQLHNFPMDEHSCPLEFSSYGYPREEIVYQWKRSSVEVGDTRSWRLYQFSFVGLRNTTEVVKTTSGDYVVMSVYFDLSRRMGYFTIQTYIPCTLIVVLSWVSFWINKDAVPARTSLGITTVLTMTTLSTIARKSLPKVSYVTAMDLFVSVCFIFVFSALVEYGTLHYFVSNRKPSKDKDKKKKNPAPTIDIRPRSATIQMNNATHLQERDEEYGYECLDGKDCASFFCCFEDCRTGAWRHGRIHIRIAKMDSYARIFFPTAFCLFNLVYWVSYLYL

alpha 2 receptors = alpha 2 receptors (UniProt P18508+P47869); conditions: cited from earlier work
Chain of alpha 2 receptors (P47869 29-451): as the sequence (P23576 29-451) above, with S88L, P174A, G330A counted along it
Chain of alpha 2 receptors (P63138 25-474 partner limits assumed): as the sequence (P63138 25-474 partner limits assumed) above
Chain of alpha 2 receptors (P18508 39-466): as the sequence (P18508 39-466) above

alpha 3 receptors = alpha 3 receptors (UniProt P18508+P34903); conditions: cited from earlier work
Chain of alpha 3 receptors (P34903 29-492): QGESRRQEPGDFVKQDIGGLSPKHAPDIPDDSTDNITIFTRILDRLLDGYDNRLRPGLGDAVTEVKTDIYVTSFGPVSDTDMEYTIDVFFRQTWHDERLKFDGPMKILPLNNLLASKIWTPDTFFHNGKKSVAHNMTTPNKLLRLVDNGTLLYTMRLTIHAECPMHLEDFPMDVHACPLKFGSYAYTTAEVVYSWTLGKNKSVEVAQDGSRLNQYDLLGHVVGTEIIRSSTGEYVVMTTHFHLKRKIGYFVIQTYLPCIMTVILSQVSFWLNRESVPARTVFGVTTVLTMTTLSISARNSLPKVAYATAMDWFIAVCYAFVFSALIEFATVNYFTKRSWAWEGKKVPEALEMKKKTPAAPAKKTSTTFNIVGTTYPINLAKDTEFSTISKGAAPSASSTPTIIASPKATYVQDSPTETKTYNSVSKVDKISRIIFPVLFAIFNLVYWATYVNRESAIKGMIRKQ
Chain of alpha 3 receptors (P63138 25-474 partner limits assumed): as the sequence (P63138 25-474 partner limits assumed) above
Chain of alpha 3 receptors (P18508 39-466): as the sequence (P18508 39-466) above

[10] = target: alpha 5 containing receptors (UniProt P18508+P31644); conditions: cited from earlier work
Chain of alpha 5 containing receptors (P31644 32-462): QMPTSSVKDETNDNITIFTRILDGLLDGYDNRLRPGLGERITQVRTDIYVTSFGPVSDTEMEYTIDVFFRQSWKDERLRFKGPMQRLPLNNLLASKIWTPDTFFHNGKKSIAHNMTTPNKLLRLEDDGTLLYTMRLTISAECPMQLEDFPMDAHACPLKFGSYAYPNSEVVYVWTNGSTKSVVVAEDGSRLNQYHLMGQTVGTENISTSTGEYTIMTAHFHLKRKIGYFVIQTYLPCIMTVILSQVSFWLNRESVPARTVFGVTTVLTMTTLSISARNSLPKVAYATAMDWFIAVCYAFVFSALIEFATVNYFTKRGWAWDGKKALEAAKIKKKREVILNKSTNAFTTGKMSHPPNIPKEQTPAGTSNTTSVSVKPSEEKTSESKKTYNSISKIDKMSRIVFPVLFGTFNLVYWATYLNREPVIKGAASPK
Chain of alpha 5 containing receptors (P63079 26-473 partner): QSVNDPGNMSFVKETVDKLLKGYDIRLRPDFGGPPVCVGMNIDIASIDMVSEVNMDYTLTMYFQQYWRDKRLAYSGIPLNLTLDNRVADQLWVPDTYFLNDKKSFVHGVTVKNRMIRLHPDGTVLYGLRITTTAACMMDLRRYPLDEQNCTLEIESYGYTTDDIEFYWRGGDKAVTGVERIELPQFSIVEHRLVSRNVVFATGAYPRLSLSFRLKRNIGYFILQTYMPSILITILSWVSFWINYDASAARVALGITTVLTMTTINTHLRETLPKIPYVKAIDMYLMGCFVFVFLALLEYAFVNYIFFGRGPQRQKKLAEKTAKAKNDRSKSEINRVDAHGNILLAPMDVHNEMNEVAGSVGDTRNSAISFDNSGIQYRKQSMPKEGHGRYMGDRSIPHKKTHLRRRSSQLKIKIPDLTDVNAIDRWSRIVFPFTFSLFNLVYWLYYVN
Chain of alpha 5 containing receptors (P18508 39-466): as the sequence (P18508 39-466) above

male Wistar rats = experiment: Rat forced swim test; format: in vivo; conditions: 10 and 30 mg/kg p.o., 23, 5 and 1 h prior to testing
Experimental: All animals were treated with verum or vehicle three times: shortly after the habituation session (23 h), 5 and 1 h prior to testing. All drugs were administered orally with an application volume of 1 ml/kg.
The animals were tested in a glass tank (23×30 cm, height 40 cm) filled to a depth of 28 cm with water at 22° C. (the animals could not touch the bottom). The glass tank was illuminated indirectly and was surrounded by dark brown shading walls (distance from the tank 20 cm) to prevent the view on the experimenter. The experiments were performed between 14:00 and 17:00 hours and the method was in general performed as described (Porsolt et al., 1979; Lucki, 1997).
On the first experimental day, rats were gently placed in the water for a 15 min period of habituation. On removal from the water, they were placed in a standard plexiglass box, the floor covered with paper towels, under an infrared heater for 30 min to dry. The next day, they were once more placed gently in the glass tank and observed for 5 min. The behaviour of the animals was video-taped.
Following the experiment the video tapes were analysed manually and the duration of the following behaviours was recorded: Immobility: floating and making only those movements necessary to keep the nose above the water. […] Climbing: when rats strongly move their forepaws in and out of the water, usually against the walls.

[11] = haloperidol 0.5 mg/kg i.p. + flumazenil 5 mg/kg i.p.
[12] = haloperidol 0.5 mg/kg i.p., MK-801 0.1 mg/kg i.p.

In the case of `NC(=O)N1c2ccccc2C=Cc2ccccc21` [Carbamazepine], the “effect on 5-HT release / extracellular 5-HT in the brain” value [1] is listed as “increase”.

In the case of `CN1C(=O)CN=C(c2ccccc2)c2cc(Cl)ccc21` [Diazepam, reference compound], the “concentration at which positive current modulations were first measurable” value ([2]; α2 containing receptors) is reported as “below 0.1 μM”, the “maximal agonism, potentiation of GABA-induced current” value ([2]; α2β2γ2, at 1 μM diazepam) is reported as 1.8 fold and the “Potentiation* (Diazepam)” value ([2]; α2β2γ2, with GABA EC20, graphically determined) is reported as 1.8 ± 0.6. The “concentration at which the current was potentiated” value [3] was 10 nM, the “maximal positive modulation of GABA-induced current” value ([3]; maximum at 30 μM (ELB139), at 1 μM (diazepam)) was 2±0.05 fold and the “Potentiation* (Diazepam)” value ([3]; with GABA EC20, graphically determined) was 2 ± 0.05. The “maximal positive modulation of GABA-induced current” value ([4]; α1-containing receptors, maximum at 30 μM (ELB139), at 1 μM (diazepam)) was 2.2±0.9 fold, the “Potentiation* (Diazepam)” value ([4]; α1β2γ2, with GABA EC20, graphically determined) was 2.2 ± 0.9 and the “concentrations at which positive current modulation was observable” value ([5]; α3-containing receptors) was “below 10 nM”. The “Potentiation* (Diazepam)” value ([5]; α3β2γ2, with GABA EC20, graphically determined) was 1.8 ± 0.11 and the “modulation of GABA-induced currents (in words)” value [6] was “no significant modulation”.

In the case of `O=C(CCCN1CCC(O)(c2ccc(Cl)cc2)CC1)c1ccc(F)cc1` [Haloperidol, 4-(4-[4-chlorophenyl]-4-hydroxy-1-piperidinyl)-1-(4-fluorophenyl)-1-nutanone, reference compound], the “all symptoms induced by MK-801” value [7] is reported as “significantly reduced all symptoms”, the “MK-801-induced ataxia, combination with flumazenil” value [8, 11] is reported as “significantly reversed” and the “effects on activity, distance, sniffing and other stereotypies when flumazenil is added” value [8, 11] is reported as “not affected”. The MK-801-induced ataxia ([8]; haloperidol 0.5 mg/kg i.p. alone, MK-801 0.1 mg/kg i.p.) was “only marginally reduced”, the MK-801-increased activity [8, 12] was “significantly reversed” and the MK-801-increased distance travelled [8, 12] was “significantly reversed”. The MK-801-induced other stereotypies [8, 12] was “slightly reduced” and the “MK-801-induced sniffing (stereotypies)” value [8, 12] was “significantly reversed”.

In the case of `Cn1c2ccc(F)cc2c2c(C(=O)N3CCCC3)cn(-c3ccccc3)c(=O)c21` [SL651498], the partial agonistic activity [9] is given as 40-50%, the partial agonistic activity (alpha 2 receptors) is given as 100% and the activity (alpha 3 receptors) is given as 70%. The partial agonistic activity [10] was 40-50%.

For `CCCC(CCC)C(=O)O` [Valproate], the “effect on 5-HT release / extracellular 5-HT in the brain” value [1] is given as “enhances”.

With `CNCCC(Oc1ccc(C(F)(F)F)cc1)c1ccccc1` (stereo not drawn) [fluoxetine, N-methyl-γ-[4-(trifluoromethyl)phenoxy] benzenepropanamine, reference compound] the climbing behaviour (male Wistar rats) was “not changed”, the swimming time (male Wistar rats) was “increased” and the time spent immobile (male Wistar rats) was “reduced”.

In the case of `NCC1(CC(=O)O)CCCCC1` [gabapentin], the “effect on 5-HT release / extracellular 5-HT in the brain” value [1] is listed as “decrease”.

For `O=C1NC(=O)C(c2ccccc2)(c2ccccc2)N1` [phenytoin], the “effect on 5-HT release / extracellular 5-HT in the brain” value [1] is given as “decrease”.
